Where a SMILES comes first, the peptide text is derived from it. [ ]: non-standard residue; d: D form. The star is where a group is joined. ξ: configuration not given here. ξGly(octyl) = CCCCCCCCC(N)C(=O)O; Hexenoyl(3E) = CC/C=C/CC(=O)*
Assays:
[1] = test system: blood glucose; assay: Blood glucose response to exendin-4 in anaesthetised rats; assay type: in vivo, rat; conditions: exendin-4 co-formulated in Axcess with recombinant human insulin, via the intestine, n = 5
[2] = ref unpublished data; cited from earlier work
From the text: In a separate experiment, intestinal delivery was studied of two GLP-1 analogues where modifications were made with the aim of increasing their circulating half-life by several hours relative to the native molecule. In one variant, G001, the molecule was identical to native GLP-1, except that N-terminal amino group was conjugated with salicylic acid. In the second, lipidated, analogue, G002, the N-terminal was conjugated with trans-3-hexenoic acid, and in position 14, leucine was replaced by octyl glycine. In addition, glutamate and alanine in positions 21 and 24 respectively were reversed, an ...

Molecule	blood glucose with co-formulated insulin [1]	half-life in rats [2]
recombinant human insulin: recombinant human insulin co-formulated with exendin-4 in the Axcess formulation	reduce blood glucose relative to exendin-4 administered alone	
Sal-HAEGTFTSDVSSYLEGQAAKEFIAWLVKGR-NH2 [G001, identical to native GLP-1, except that N-terminal amino group was conjugated with salicylic acid]		25 min
CC/C=C/CC(=O)N[C@@H](Cc1c[nH]cn1)C(=O)N[C@@H](C)C(=O)N[C@@H](CCC(=O)O)C(=O)NCC(=O)N[C@H](C(=O)N[C@@H](Cc1ccccc1)C(=O)N[C@H](C(=O)N[C@@H](CO)C(=O)N[C@@H](CC(=O)O)C(=O)N[C@H](C(=O)N[C@@H](CO)C(=O)N[C@@H](CO)C(=O)N[C@@H](Cc1ccc(O)cc1)C(=O)NC(CCCCCCCC)C(=O)N[C@@H](CCC(=O)O)C(=O)NCC(=O)N[C@@H](CCC(N)=O)C(=O)N[C@@H](C)C(=O)N[C@@H](C)C(=O)N[C@@H](CCCCN)C(=O)N[C@@H](C)C(=O)N[C@@H](Cc1ccccc1)C(=O)N[C@H](C(=O)N[C@@H](CCC(=O)O)C(=O)N[C@@H](Cc1c[nH]c2ccccc12)C(=O)N[C@@H](CC(C)C)C(=O)N[C@H](C(=O)N[C@@H](CCCCN)C(=O)N[C@@H](CC(N)=O)C(N)=O)C(C)C)[C@@H](C)CC)C(C)C)[C@@H](C)O)[C@@H](C)O (stereo partly drawn) [G002] ({Hexenoyl(3E)}-HAEGTFTSDVSSY[ξGly(octyl)]EGQAAKAFIEWLVKN-NH2)		~720 min

Source: article PMC12363265, “Glucagon-like peptide-1 receptor agonists for treatment of diabetes and obesity: advantage of oral delivery” (Frontiers in Drug Delivery, 2024)
